Calls of active or inactive are those of the source. No cut-off for these calls is given here.
Assays:
Mus musculus [1] = experiment: Compound was evaluated for the dose required for protection against MES-induced seizures after 4 hours of intraperitoneal administration; Inactive; type: functional, organism-based
Mus musculus [2] = experiment: Compound was evaluated for the dose required for protection against scMET-induced seizures after 4 hours of intraperitoneal administration; Inactive; type: functional, organism-based
Mus musculus [3] = experiment: Compound was evaluated for the neuro toxicity up to 4 hours after doses of <=300 mg/kg administered intraperitoneally; No toxicity; type: organism-based; conditions: in vivo, ip
Mus musculus [4] = experiment: Compound was evaluated for the dose required for protection against MES-induced seizures after 4 hours of intraperitoneal administration at the doses< = 0.77-0.90 mM/kg; Inactive; type: functional, organism-based
Mus musculus [5] = experiment: Compound was evaluated for the dose required for protection against scMET-induced seizures after 4 hours of intraperitoneal administration; type: functional
Mus musculus [6] = experiment: Compound was evaluated for the dose required for protection against MES-induced seizures after 4 hours of intraperitoneal administration; type: functional
Mus musculus [7] = experiment: Compound was evaluated for the dose required for protection against scMET-induced seizures after 4 hours of intraperitoneal administration at the doses< = 0.77-0.90 mM/kg; Inactive; type: functional, organism-based

SMILES	Activity (Mus musculus [1])	Activity (Mus musculus [2])	Neurotoxicity (Mus musculus [3])	Activity (Mus musculus [4])	Activity (Mus musculus [5])	Activity (Mus musculus [6])	Activity (Mus musculus [7])
Cc1ccc(C2(c3ccc(C(F)(F)F)cc3)NC(=O)NC2=O)cc1 (stereo not given)	inactive	inactive	No toxicity	–	–	–	–
O=C1NC(=O)C(c2ccc(C(F)(F)F)cc2)(c2cccc(C(F)(F)F)c2)N1 (stereo not given)	inactive	inactive	No toxicity	–	–	–	–
O=C1NC(=O)C(c2cccc(C(F)(F)F)c2)(c2cccc(C(F)(F)F)c2)N1	–	–	No toxicity	inactive	2.6 mmol/kg	–	–
Cc1ccc(C2(c3cccc(C(F)(F)F)c3)NC(=O)NC2=O)cc1 (stereo in doubt; 7)	inactive	inactive	No toxicity	–	–	–	–
O=C1NC(=O)C(c2ccccc2)(c2ccc(C(F)(F)F)cc2)N1 (stereo not given)	–	–	No toxicity	–	–	0.94 mmol/kg	inactive

Source: ChEMBL document CHEMBL1121659 (J Med Chem, 1981)
